This note sets out measurements from patent US11739064B2, “HDAC inhibitors and therapeutic methods using the same” (THE BOARD OF TRUSTEES OF THE UNIVERSITY OF ILLINOIS, priority 2015, dated 2023).

Read-outs that look alike come from different tables or passages of the source.

The target in one test is HDAC2 (Homo sapiens, UniProt Q92769). Nature of the test: In vitro HDAC inhibition assay, HDAC2. The conditions noted are these: NI = No inhibition at a concentration of 50 pM (footnote b); read-out: HDAC isoform IC50, HDAC2. The format is biochemical.
Sequence of HDAC2 (Q92769 whole entry, canonical isoform): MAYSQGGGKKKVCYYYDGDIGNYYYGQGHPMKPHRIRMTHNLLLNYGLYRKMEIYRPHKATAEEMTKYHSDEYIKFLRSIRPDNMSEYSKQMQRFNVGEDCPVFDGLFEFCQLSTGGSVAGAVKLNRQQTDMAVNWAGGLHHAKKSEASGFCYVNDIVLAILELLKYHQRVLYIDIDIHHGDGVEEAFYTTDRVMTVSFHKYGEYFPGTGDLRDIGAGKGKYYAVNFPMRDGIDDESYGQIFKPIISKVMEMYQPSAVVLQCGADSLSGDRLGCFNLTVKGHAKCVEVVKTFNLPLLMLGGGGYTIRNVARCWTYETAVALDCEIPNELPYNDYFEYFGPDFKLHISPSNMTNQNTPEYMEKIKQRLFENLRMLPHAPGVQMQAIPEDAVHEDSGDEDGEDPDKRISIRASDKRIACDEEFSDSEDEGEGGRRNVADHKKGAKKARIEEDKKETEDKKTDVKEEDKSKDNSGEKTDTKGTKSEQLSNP
Another test has as its target HDAC3/NcoR2 complex (Homo sapiens, UniProt O15379). Nature of the test: In vitro HDAC inhibition assay, HDAC3. Conditions: NI = No inhibition at a concentration of 50 pM (footnote b); read-out: HDAC isoform IC50, HDAC3. The test is classed as biochemical.
In a further test the target is T1, Human HDAC6 (Homo sapiens, UniProt Q9UBN7).
T1 construct: Full length with N-terminal GST tag, MW=159 kDa; GST (N); host or cells: baculovirus expression system, Sf9 cells
T1 sequence (Q9UBN7 1-1215): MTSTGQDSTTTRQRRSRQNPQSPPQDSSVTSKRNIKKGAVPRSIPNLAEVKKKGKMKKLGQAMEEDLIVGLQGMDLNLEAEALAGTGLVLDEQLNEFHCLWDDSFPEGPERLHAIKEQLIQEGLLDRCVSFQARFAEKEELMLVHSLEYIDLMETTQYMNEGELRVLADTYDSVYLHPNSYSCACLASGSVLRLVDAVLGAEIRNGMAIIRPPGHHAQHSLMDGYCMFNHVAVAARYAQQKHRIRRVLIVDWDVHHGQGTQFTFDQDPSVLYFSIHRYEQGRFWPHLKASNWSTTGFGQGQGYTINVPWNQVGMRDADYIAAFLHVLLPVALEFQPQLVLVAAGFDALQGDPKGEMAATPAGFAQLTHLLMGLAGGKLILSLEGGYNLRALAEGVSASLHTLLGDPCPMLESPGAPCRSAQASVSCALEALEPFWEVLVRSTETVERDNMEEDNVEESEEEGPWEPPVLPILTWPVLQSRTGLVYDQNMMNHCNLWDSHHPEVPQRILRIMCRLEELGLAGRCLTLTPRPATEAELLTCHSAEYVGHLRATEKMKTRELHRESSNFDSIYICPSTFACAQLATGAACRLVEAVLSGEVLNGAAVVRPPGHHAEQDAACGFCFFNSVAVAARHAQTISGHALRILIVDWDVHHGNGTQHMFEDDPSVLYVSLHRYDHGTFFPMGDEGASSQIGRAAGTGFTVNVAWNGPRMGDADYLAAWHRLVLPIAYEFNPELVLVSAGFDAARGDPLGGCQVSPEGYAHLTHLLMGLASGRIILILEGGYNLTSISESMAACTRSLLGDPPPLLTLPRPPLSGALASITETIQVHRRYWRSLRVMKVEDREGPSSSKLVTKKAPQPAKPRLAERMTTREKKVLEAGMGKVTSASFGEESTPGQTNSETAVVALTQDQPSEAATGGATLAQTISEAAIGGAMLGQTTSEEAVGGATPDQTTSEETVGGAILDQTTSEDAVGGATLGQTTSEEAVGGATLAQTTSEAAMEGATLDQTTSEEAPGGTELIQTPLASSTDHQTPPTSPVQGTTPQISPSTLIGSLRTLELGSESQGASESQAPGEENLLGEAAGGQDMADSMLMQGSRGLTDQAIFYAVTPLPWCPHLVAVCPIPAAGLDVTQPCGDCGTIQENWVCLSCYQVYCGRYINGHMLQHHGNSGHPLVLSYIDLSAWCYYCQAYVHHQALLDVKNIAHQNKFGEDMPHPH
Nature of the test: In vitro HDAC inhibition assay, HDAC6. The format is biochemical. Conditions: read-out: HDAC isoform IC50, HDAC6.

In the next test the target is T2, HDAC10 (Homo sapiens, UniProt Q969S8).
T2 sequence (Q969S8 1-669): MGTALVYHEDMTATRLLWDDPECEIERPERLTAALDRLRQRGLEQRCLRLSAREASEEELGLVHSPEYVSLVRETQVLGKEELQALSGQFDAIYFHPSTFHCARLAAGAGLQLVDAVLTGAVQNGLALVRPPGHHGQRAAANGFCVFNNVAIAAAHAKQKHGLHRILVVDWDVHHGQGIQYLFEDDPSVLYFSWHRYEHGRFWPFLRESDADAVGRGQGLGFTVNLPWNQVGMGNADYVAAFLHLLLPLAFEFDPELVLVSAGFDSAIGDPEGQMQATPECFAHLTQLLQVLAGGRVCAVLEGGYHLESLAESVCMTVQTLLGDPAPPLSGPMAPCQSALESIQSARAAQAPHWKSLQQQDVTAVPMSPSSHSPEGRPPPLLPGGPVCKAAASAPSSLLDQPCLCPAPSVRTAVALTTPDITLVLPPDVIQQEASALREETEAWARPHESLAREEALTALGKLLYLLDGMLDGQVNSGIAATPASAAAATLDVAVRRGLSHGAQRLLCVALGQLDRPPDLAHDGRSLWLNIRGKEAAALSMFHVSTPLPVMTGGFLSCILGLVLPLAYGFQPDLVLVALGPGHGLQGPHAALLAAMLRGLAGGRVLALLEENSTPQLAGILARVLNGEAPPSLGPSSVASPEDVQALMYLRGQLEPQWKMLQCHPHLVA
The test can be described thus: In vitro HDAC inhibition assay, HDAC10. The conditions noted are these: NI = No inhibition at a concentration of 50 pM (footnote b); read-out: HDAC isoform IC50, HDAC10. The test is classed as biochemical.

The target in the next test is Human HDAC1 (Homo sapiens, UniProt Q13547). The test can be described thus: In vitro HDAC inhibition assay, HDAC1.
Sequence of Human HDAC1 (Q13547 whole entry): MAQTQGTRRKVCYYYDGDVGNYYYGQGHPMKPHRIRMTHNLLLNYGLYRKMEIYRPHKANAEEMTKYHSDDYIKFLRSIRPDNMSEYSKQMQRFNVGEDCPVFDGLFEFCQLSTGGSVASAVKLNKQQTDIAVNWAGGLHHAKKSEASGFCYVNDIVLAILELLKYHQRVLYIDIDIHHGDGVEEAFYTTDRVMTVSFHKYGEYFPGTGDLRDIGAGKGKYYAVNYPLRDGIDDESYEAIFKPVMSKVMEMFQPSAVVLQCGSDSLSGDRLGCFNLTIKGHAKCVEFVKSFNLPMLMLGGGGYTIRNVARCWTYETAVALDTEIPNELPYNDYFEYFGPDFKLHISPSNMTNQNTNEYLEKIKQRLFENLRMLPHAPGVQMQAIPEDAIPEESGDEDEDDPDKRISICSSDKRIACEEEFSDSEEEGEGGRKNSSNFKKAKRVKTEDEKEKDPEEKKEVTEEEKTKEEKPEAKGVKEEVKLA
The test system of another test is BxPC3. Nature of the test: In vitro growth inhibition (GI), MTS cell proliferation assay (Table 5), BxPC3. The test is classed as cell-based. The conditions noted are these: Homo sapiens, BXPC-3, 72 hours post-treatment.
For the next test, the system named is L3.6pl. The test can be described thus: In vitro growth inhibition (GI), MTS cell proliferation assay (Table 5), L3.6pl. The test is classed as cell-based. The conditions noted are these: Homo sapiens, 72 hours post-treatment. Background: Formazan colour is commonly taken as a measure of viable cells.
A further test relates to PANC1 cells. The test can be described thus: Scratch-wound cell migration assay. The test is classed as cell-based. Set-up: key to Inhibition of cell migration, 24 h / Inhibition of cell migration, 48 h: Level of inhibition (high to low): +++, ++ or +; Level of inhibition (high to low): +++, ++ or +; Level of inhibition (high to low): +++, ++ or +; no inhibition: −. Conditions: for Inhibition of cell migration, 24 h: PANC1, 24 h post wounding; for Inhibition of cell migration, 48 h: PANC1, 48 h post wounding. On the procedure:
FIG. 2 contains photographs of PANC1 cells treated with present compounds 9 and 6 taken 24 and 48 hours (post wounding) after a scratch was made through a confluent layer of cells; and
PANC1 Cell migration and effect on T and NK Cells. The effect of HDAC6 inhibition on cell migration and cellular cytotoxicity was evaluated. […] Thus, these HDAC6-selective inhibitors could function well to block metastasis. However, in contrast to the effect observed on cell migration, none of the compounds tested affected CD8+ T cell or natural killer (NK) cell-mediated cytotoxicity, despite the ability of the compounds to substantially increase the levels of acetyl-tubulin in these cell lines.

The next test deals with acetylated alpha-tubulin. Nature of the test: Accumulation of acetylated alpha-tubulin in pancreatic cancer cells. The format is cell-based. Conditions: FIG. 1A. The text has this:
Cell cycle and inhibition of alpha-tubulin deacetylation.

Setting [1] is: read-out: HDAC isoform IC50, HDAC1, NI = No inhibition at a concentration of 50 pM (footnote b).

Sequence of HDAC3/NcoR2 complex (O15379 whole entry, canonical isoform): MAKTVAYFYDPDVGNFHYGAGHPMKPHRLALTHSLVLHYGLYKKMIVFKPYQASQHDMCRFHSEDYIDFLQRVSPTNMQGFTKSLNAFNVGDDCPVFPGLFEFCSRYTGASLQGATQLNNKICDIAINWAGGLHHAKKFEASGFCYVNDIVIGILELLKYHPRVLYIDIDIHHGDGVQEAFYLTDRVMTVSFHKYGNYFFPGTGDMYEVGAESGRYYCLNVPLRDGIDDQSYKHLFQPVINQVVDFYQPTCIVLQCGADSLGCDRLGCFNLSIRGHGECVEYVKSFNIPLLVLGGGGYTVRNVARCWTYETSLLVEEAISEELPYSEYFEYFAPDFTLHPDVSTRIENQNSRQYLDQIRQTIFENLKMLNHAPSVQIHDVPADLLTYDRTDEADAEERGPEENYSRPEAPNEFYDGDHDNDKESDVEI
Sequence of HDAC3/NcoR2 complex (Q9Y618 395-489 partner limits assumed): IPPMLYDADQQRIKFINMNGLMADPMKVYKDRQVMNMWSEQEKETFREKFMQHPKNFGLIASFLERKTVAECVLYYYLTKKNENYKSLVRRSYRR

On to `CC(C)(C)OC(=O)Nc1ccc(-c2csc(NC(=O)CCCc3cc(C(=O)NO)no3)n2)cc1` [Compound 3, (4-{2-[4-(3-Hydroxycarbamoyl-isoxazol-5-yl)-butyrylamino]-thiazol-4-yl}-phenyl)-carbamic acid tert-butyl ester], for which the 50% inhibitory concentration (IC50) (commonly the concentration at which inhibition is half-maximal) at HDAC2 came to 1140 nM; on HDAC3/NcoR2 complex, 448 nM; at Human HDAC6, 41.2 nM; on HDAC10, 52.9 nM; on Human HDAC1 (setting [1]), 401 nM.

As to `CCOC(=O)Nc1cccc(-c2csc(NC(=O)CCc3cc(C(=O)NO)no3)n2)c1` [Compound 5, (3-{2-[3-(3-Hydroxycarbamoyl-isoxazol-5-yl)-propionylamino]-thiazol-4-yl}-phenyl)-carbamic acid ethyl ester], the IC50 came out at 1100 nM on HDAC2; 107 nM at HDAC3/NcoR2 complex; 3.3 nM on Human HDAC6; 271 nM on HDAC10; 266 nM on Human HDAC1 (setting [1]). In addition, the figures for the GI50 in the test on BxPC3 and in the test with L3.6pl were 7000 nM and 2100 nM, respectively.

`CC(C)(C)OC(=O)Nc1cccc(-c2cc(C(=O)NCCc3cc(C(=O)NO)no3)no2)c1` [Compound 7, (3-{3-[2-(3-Hydroxycarbamoyl-isoxazol-5-yl)-ethylcarbamoyl]-isoxazol-5-yl}-phenyl)-carbamic acid tert-butyl ester]: the IC50 at HDAC3/NcoR2 complex was found to be 98800 nM; on Human HDAC6 it was 7.7 nM; against Human HDAC1, 54000 nM. Besides, the concentration for 50% growth inhibition (GI50) in the test on BxPC3 and with L3.6pl was above 50000 nM each time. For the same molecule, the “Inhibition of cell migration, 24 h” value with PANC1 cells is “+”. Besides, the “Inhibition of cell migration, 48 h” value in the test with PANC1 cells is on record as “+”.

As for `CCOC(=O)Nc1ccc(-c2cc(C(=O)NCCc3cc(C(=O)NO)no3)no2)cc1` [Compound 8, (4-{3-[2-(3-Hydroxycarbamoyl-isoxazol-5-yl)-ethylcarbamoyl]-isoxazol-5-yl}-phenyl)-carbamic acid ethyl ester], the IC50 on HDAC2 was found to be 41300 nM; at HDAC3/NcoR2 complex, 5190 nM; on Human HDAC6 it was 101 nM; on HDAC10 it was 12500 nM; on Human HDAC1 (setting [1]) it was 3910 nM. In addition, the GI50 (as a rule, the concentration at which growth is held to half of that of the control) is above 50000 nM in the test with BxPC3 and 47000 nM in the test with L3.6pl.

Take `CC(C)(C)C(=O)Nc1cccc(-c2cc(C(=O)NCCc3cc(C(=O)NO)no3)no2)c1` [Compound 10, 5-[2-({5-[3-(2,2-Dimethyl-propionylamino)-phenyl]-isoxazole-3-carbonyl}-amino)-ethyl]-isoxazole-3-carboxylic acid hydroxyamide]: the IC50 turned out to be 21.2 nM at Human HDAC6, 40100 nM on HDAC10 and 76000 nM on Human HDAC1. Moreover, the “Inhibition of cell migration, 24 h” value in the test on PANC1 cells is reported as “−”. For the same molecule, the “Inhibition of cell migration, 48 h” value in the test with PANC1 cells was “−”. The “Accumulation of acetylated alpha-tubulin” value with acetylated alpha-tubulin is “accumulation of acetylated alpha-tubulin”.

On to `O=C(NO)c1cc(CCNC(=O)c2cc(-c3cccc(NC(=O)C4CCCCC4)c3)on2)on1` [Compound 11], for which, on Human HDAC6, the IC50 amounted to 6.7 nM. This molecule showed a GI50 in the test on BxPC3 above 50000 nM. Moreover, the GI50 in the test with L3.6pl was above 50000 nM. In the test on PANC1 cells, the “Inhibition of cell migration, 24 h” value is “+” and the “Inhibition of cell migration, 48 h” value was “−”. Moreover, in the test on acetylated alpha-tubulin, the “Accumulation of acetylated alpha-tubulin” value is “accumulation of acetylated alpha-tubulin”.

With `O=C(NO)c1ccc(CNC(=O)c2cc(-c3ccc(NC(=O)C4CCCCC4)cc3)on2)cc1` [Compound 16, 5-[4-(Cyclohexanecarbonyl-amino)-phenyl]-isoxazole-3-carboxylic acid 4-hydroxycarbamoyl-benzylamide], the half-maximal inhibitory concentration (IC50) on HDAC2 amounted to 2490 nM; at HDAC3/NcoR2 complex, 215 nM; at Human HDAC6 it was 5.4 nM; on HDAC10 it was 204 nM; on Human HDAC1 (setting [1]), 350 nM.

In the case of `O=C(NO)c1ccc(CNC(=O)c2cc(-c3cccc(NC(=O)C4CCCCC4)c3)on2)cc1` [Compound 17, 5-[3-(Cyclohexanecarbonyl-amino)-phenyl]-isoxazole-3-carboxylic acid 4-hydroxycarbamoyl-benzylamide], the IC50 on HDAC2 worked out at 4300 nM; on HDAC3/NcoR2 complex, 669 nM; at Human HDAC6 it was 2.6 nM; on HDAC10, 191 nM; at Human HDAC1 (setting [1]), 212 nM.

In the case of `O=C(NC(Cc1cc(C(=O)NO)no1)Cc1c[nH]c2ccccc12)c1ccc(Cl)cc1` (centres unmarked) [Compound 19, 5-[2-(4-Chloro-benzoylamino)-3-(1H-indol-3-yl)-propyl]-isoxazole-3-carboxylic acid hydroxyamide], the concentration for half-maximal inhibition (IC50) on HDAC3/NcoR2 complex was determined as 37800 nM; at Human HDAC6 it was 430 nM; against Human HDAC1, 46600 nM.

Turning to `O=C(NO)c1cc(CC(Cc2c[nH]c3ccccc23)NC(=O)C(F)(F)F)on1` (centres unmarked) [Compound 20, 5-[3-(1H-Indol-3-yl)-2-(2,2,2-trifluoro-acetylamino)-propyl]-isoxazole-3-carboxylic acid hydroxyamide], the IC50 at HDAC3/NcoR2 complex was 41600 nM; at Human HDAC6 it was 3050 nM.

As for `COc1ccc(C(=O)NC(Cc2cc(C(=O)NO)no2)Cc2c[nH]c3ccccc23)cc1OC` (centres unmarked) [Compound 21, 5-[2-(3,4-Dimethoxy-benzoylamino)-3-(1H-indol-3-yl)-propyl]-isoxazole-3-carboxylic acid hydroxyamide], the values for the IC50 at HDAC3/NcoR2 complex, on Human HDAC6 and against Human HDAC1 were 54100 nM, 721 nM and 49900 nM, respectively.
